Data reported in patent publication US9695155B2, “Herbicidal substituted pyrimidinyloxy benzene compounds” (E. I. DU PONT DE NEMOURS AND COMPANY, priority 2013, dated 2017).

Assays:
[1] = test system: barnyardgrass; experiment: Test A preemergence; format: in vivo, Echinochloa crus-galli; conditions: for Plant response rating, Barnyardgrass: 0 to 100 scale where 0 is no effect and 100 is complete control
How it was run: (§1)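 Injury scores run from 0, no effect, to 100, complete control, judged by eye against untreated plants roughly 10 days after treatment. Chemicals carried a surfactant in a non-phytotoxic solvent and went onto loam–sand soil preemergence or onto one- to two-leaf seedlings postemergence.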

[2] = test system: kochia; experiment: Test A preemergence; format: in vivo, Kochia scoparia; conditions: for Plant response rating, Kochia: 31 g ai/ha, 0 to 100 scale where 0 is no effect and 100 is complete control, visual, approximately 10 days; for Kochia plant response rating (0 to 100 scale): 125 g ai/ha
How it was run: as §1

[3] = test system: ragweed; experiment: Test A preemergence; format: in vivo, Ambrosia elatior; conditions: for Plant response rating, Ragweed: 31 g ai/ha, 0 to 100 scale where 0 is no effect and 100 is complete control, visual, approximately 10 days; for Ragweed plant response rating (0 to 100 scale): 125 g ai/ha
How it was run: as §1

[4] = test system: Italian ryegrass; experiment: Test A preemergence; format: in vivo, Lolium multiflorum; conditions: for Plant response rating, Ryegrass, Italian: 31 g ai/ha, 0 to 100 scale where 0 is no effect and 100 is complete control, visual, approximately 10 days; for Ryegrass, Italian plant response rating (0 to 100 scale): 125 g ai/ha
How it was run: as §1

[5] = test system: giant foxtail; experiment: Test A preemergence; format: in vivo, Setaria faberii; conditions: for Plant response rating, Foxtail, Giant: 0 to 100 scale where 0 is no effect and 100 is complete control
How it was run: as §1

[6] = test system: pigweed; experiment: Test A preemergence; format: in vivo, Amaranthus retroflexus; conditions: for Plant response rating, Pigweed: 31 g ai/ha, 0 to 100 scale where 0 is no effect and 100 is complete control, visual, approximately 10 days; for Pigweed plant response rating (0 to 100 scale): 125 g ai/ha
How it was run: as §1

[7] = test system: barnyardgrass; experiment: Test A postemergence; format: in vivo, Echinochloa crus-galli; conditions: for Plant response rating, Barnyardgrass: 0 to 100 scale, 0 no effect, 100 complete control
How it was run: as §1

[8] = test system: kochia; experiment: Test A postemergence; format: in vivo, Kochia scoparia; conditions: for Plant response rating, Kochia: 0 to 100 scale, 0 no effect, 100 complete control
How it was run: as §1

[9] = test system: ragweed; experiment: Test A postemergence; format: in vivo, Ambrosia elatior; conditions: for Plant response rating, Ragweed: 0 to 100 scale, 0 no effect, 100 complete control
How it was run: as §1

[10] = test system: Italian ryegrass; experiment: Test A postemergence; format: in vivo, Lolium multiflorum; conditions: for Plant response rating, Ryegrass, Italian: 0 to 100 scale, 0 no effect, 100 complete control
How it was run: as §1

[11] = test system: giant foxtail; experiment: Test A postemergence; format: in vivo, Setaria faberii; conditions: for Plant response rating, Foxtail, Giant: 0 to 100 scale, 0 no effect, 100 complete control
How it was run: as §1

[12] = test system: pigweed; experiment: Test A postemergence; format: in vivo, Amaranthus retroflexus; conditions: for Plant response rating, Pigweed: 0 to 100 scale, 0 no effect, 100 complete control
How it was run: as §1

[13] = test system: wheat; experiment: Test A postemergence; format: in vivo, Triticum aestivum; conditions: for Plant response rating, Wheat: 0 to 100 scale, 0 no effect, 100 complete control
How it was run: as §1

[14] = test system: corn; experiment: Test A postemergence; format: in vivo, Zea mays; conditions: for Plant response rating, Corn: 0 to 100 scale, 0 no effect, 100 complete control
How it was run: as §1

[15] = test system: blackgrass; experiment: Test A postemergence; format: in vivo, Alopecurus myosuroides; conditions: for Plant response rating, Blackgrass: 0 to 100 scale, 0 no effect, 100 complete control
How it was run: as §1

[16] = test system: galium; experiment: Test A postemergence; format: in vivo, Galium aparine; conditions: for Plant response rating, Galium: 0 to 100 scale, 0 no effect, 100 complete control
How it was run: as §1

[17] = test system: rice; experiment: Test B flooded paddy test; format: in vivo, Oryza sativa; conditions: Flood, 250 g ai/ha; 0 to 100 scale where 0 is no effect and 100 is complete control
How it was run: (§2)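 Seedlings are raised to two leaves, flooded to a depth of 3 cm and dosed by adding the compound to the floodwater. Water level is kept constant, and plants are scored visually versus controls 13–15 days later (0 = no effect, 100 = complete control).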

[18] = test system: sedge, umbrella; experiment: Test B flooded paddy test; format: in vivo, Cyperus difformis; conditions: Flood, 250 g ai/ha; 0 to 100 scale where 0 is no effect and 100 is complete control
How it was run: as §2

[19] = test system: Heteranthera limosa; experiment: Test B flooded paddy test; format: in vivo; conditions: Flood, 250 g ai/ha; 0 to 100 scale where 0 is no effect and 100 is complete control
How it was run: as §2

[20] = test system: barnyardgrass; experiment: Test B flooded paddy test; format: in vivo, Echinochloa crus-galli; conditions: Flood, 250 g ai/ha; 0 to 100 scale where 0 is no effect and 100 is complete control
How it was run: as §2

[21] = 1000 g ai/ha, 0 to 100 scale, 0 no effect, 100 complete control, approx. 10 days
[22] = 31 g ai/ha, visual, approximately 10 days
[23] = 125 g ai/ha, 0 to 100 scale where 0 is no effect and 100 is complete control

## NS(=O)(=O)c1cnn(-c2ccccc2Oc2ncc(Cl)cn2)c1 [Compound 282]
[1]; [21]
  Barnyardgrass plant response rating: 90
[2]; [21]
  Kochia plant response rating: 100
[3]; [21]
  Ragweed plant response rating: 100
[4]; [21]
  Ryegrass, Italian plant response rating: 50
[5]; [21]
  Foxtail, Giant plant response rating: 100
[6]; [21]
  Pigweed plant response rating: 100
[7]; 1000 g ai/ha
  Plant response rating, Barnyardgrass: 90
[8]; 1000 g ai/ha
  Plant response rating, Kochia: 90
[9]; 1000 g ai/ha
  Plant response rating, Ragweed: 100
[10]; 1000 g ai/ha
  Plant response rating, Ryegrass, Italian: 80
[11]; 1000 g ai/ha
  Plant response rating, Foxtail, Giant: 60
[12]; 1000 g ai/ha
  Plant response rating, Pigweed: 80
[13]; 1000 g ai/ha
  Plant response rating, Wheat: 0
[14]; 1000 g ai/ha
  Plant response rating, Corn: 50
[15]; 1000 g ai/ha
  Plant response rating, Blackgrass: 100
[16]; 1000 g ai/ha
  Plant response rating, Galium: 30
[17]
  Plant response rating, Rice: 0
[18]
  Plant response rating, Sedge, Umbrella: 0
[19]
  Plant response rating, Ducksalad: 0
[20]
  Plant response rating, Barnyardgrass: 0

## COc1cccc(Oc2ncc(Cl)cn2)c1-n1cc(Cl)cn1 [Compound 169]
[1]; [22]
  Plant response rating, Barnyardgrass: 10
[1]; 125 g ai/ha
  Plant response rating, Barnyardgrass: 50
[2]
  Plant response rating, Kochia: 0
  Kochia plant response rating (0 to 100 scale): 0
[3]
  Plant response rating, Ragweed: 0
  Ragweed plant response rating (0 to 100 scale): 0
[4]
  Plant response rating, Ryegrass, Italian: 0
  Ryegrass, Italian plant response rating (0 to 100 scale): 0
[5]; [22]
  Plant response rating, Foxtail, Giant: 30
[5]; 125 g ai/ha
  Plant response rating, Foxtail, Giant: 80
[6]
  Plant response rating, Pigweed: 0
  Pigweed plant response rating (0 to 100 scale): 80
[7]; 31 g ai/ha
  Plant response rating, Barnyardgrass: 0
[7]; [23]
  Barnyardgrass plant response rating: 20
[8]; 31 g ai/ha
  Plant response rating, Kochia: 0
[8]; [23]
  Kochia plant response rating: 10
[9]; 31 g ai/ha
  Plant response rating, Ragweed: 10
[9]; [23]
  Ragweed plant response rating: 60
[10]; 31 g ai/ha
  Plant response rating, Ryegrass, Italian: 0
[10]; [23]
  Ryegrass, Italian plant response rating: 0
[11]; 31 g ai/ha
  Plant response rating, Foxtail, Giant: 0
[11]; [23]
  Foxtail, Giant plant response rating: 40
[12]; 31 g ai/ha
  Plant response rating, Pigweed: 10
[12]; [23]
  Pigweed plant response rating: 20
[13]; 31 g ai/ha
  Plant response rating, Wheat: 0
[13]; [23]
  Wheat plant response rating: 0
[14]; 31 g ai/ha
  Plant response rating, Corn: 0
[14]; [23]
  Corn plant response rating: 0
[15]; 31 g ai/ha
  Plant response rating, Blackgrass: 0
[15]; [23]
  Blackgrass plant response rating: 30
[16]; 31 g ai/ha
  Plant response rating, Galium: 10
[16]; [23]
  Galium plant response rating: 40
[17]
  Plant response rating, Rice: 15
[18]
  Plant response rating, Sedge, Umbrella: 75
[19]
  Plant response rating, Ducksalad: 65
[20]
  Plant response rating, Barnyardgrass: 25

## Cc1cn(-c2c(C#N)cccc2Oc2ncc(Cl)cn2)cn1 [Compound 260]
[1]; [22]
  Plant response rating, Barnyardgrass: 0
[1]; 125 g ai/ha
  Barnyardgrass plant response rating (0 to 100 scale, 0 is no effect, 100 is complete control): 0
[2]
  Plant response rating, Kochia: 0
  Kochia plant response rating (0 to 100 scale): 0
[3]
  Plant response rating, Ragweed: 0
  Ragweed plant response rating (0 to 100 scale): 0
[4]
  Plant response rating, Ryegrass, Italian: 0
  Ryegrass, Italian plant response rating (0 to 100 scale): 0
[5]; [22]
  Plant response rating, Foxtail, Giant: 0
[5]; 125 g ai/ha
  Foxtail, Giant plant response rating (0 to 100 scale): 0
[6]
  Plant response rating, Pigweed: 0
  Pigweed plant response rating (0 to 100 scale): 30
[7]; 31 g ai/ha
  Plant response rating, Barnyardgrass: 0
[7]; 125 g ai/ha
  Plant response rating, Barnyardgrass: 0
[8]; 31 g ai/ha
  Plant response rating, Kochia: 50
[8]; 125 g ai/ha
  Plant response rating, Kochia: 60
[9]; 31 g ai/ha
  Plant response rating, Ragweed: 30
[9]; 125 g ai/ha
  Plant response rating, Ragweed: 40
[10]; 31 g ai/ha
  Plant response rating, Ryegrass, Italian: 0
[10]; 125 g ai/ha
  Plant response rating, Ryegrass, Italian: 0
[11]; 31 g ai/ha
  Plant response rating, Foxtail, Giant: 0
[11]; 125 g ai/ha
  Plant response rating, Foxtail, Giant: 0
[12]; 31 g ai/ha
  Plant response rating, Pigweed: 50
[12]; 125 g ai/ha
  Plant response rating, Pigweed: 60
[13]; 31 g ai/ha
  Plant response rating, Wheat: 0
[13]; 125 g ai/ha
  Plant response rating, Wheat: 0
[14]; 31 g ai/ha
  Plant response rating, Corn: 0
[14]; 125 g ai/ha
  Plant response rating, Corn: 10
[15]; 31 g ai/ha
  Plant response rating, Blackgrass: 0
[15]; 125 g ai/ha
  Plant response rating, Blackgrass: 0
[16]; 31 g ai/ha
  Plant response rating, Galium: 50
[16]; 125 g ai/ha
  Plant response rating, Galium: 60
[17]
  Plant response rating, Rice: 0
[18]
  Plant response rating, Sedge, Umbrella: 0
[19]
  Plant response rating, Ducksalad: 0
[20]
  Plant response rating, Barnyardgrass: 0
